Source: US20100022629A1, “Dietary Methods and Compositions for Enhancing Metabolism and Reducing Reactive Oxygen Species” (Elixirin, priority 2006, published 2010)

What was measured:
[1] = system: men and women diagnosed with a recent MI; conditions: 4 grams/day for 12 months plus standard pharmacological treatment; control group 12.5%; cited from earlier work
Fischer 344 male rats = experiment: Morris water maze spatial memory test; format: in vivo; conditions: fed 7 weeks, 5 per group, SD around 20%
From the text: FIG. 1 of 2 depicts measurements of spatial memory in (Fischer 344 male rats) subjected to a water maze test, after treatment with carnitine, lipoic acid, and/or polyphenol. […] The Morris maze task tests spatial memory by requiring rats to find a submerged platform in a pool of water using external visual cues (Morris, R. 1984; J. Neurosci. Methods, 11:47-60; Schenk, F. and Morris, R, Exp. Brain Res. 58:11-28, 1985). The rats in the experimental group (5 each) were fed either 0.5% (wt/vol) acetyl-L-carnitine in water, 1.0% (wt/vol) polyphenol in water; 0.2% (wt/wt) lipoic acid in AIN93M diet, or a combination of the above. Rats were acclimated for one week before experiments. Rats were fed for the above treatment for 7 weeks before tests. Trials (4 consecutive days, 4 trials per day) were conducted and the results averaged. The standard deviation is around 20%. Control rats were fed with water and AIN93M diet only.

[2] = system: 8-hydroxy-2′-deoxyguanosine/8-hydroxyguanosine; experiment: Oxidation level of DNA in hippocampus sections (anti-8-hydroxy-2′-deoxyguanosine/8-hydroxyguanosine immunocytochemistry); format: in vivo, rats; conditions: rat hippocampus, fed 7 weeks, mean of 5 animals, SD about 15%
From the text: The rats in the experimental group (5 each) were fed either 0.5% (wt/vol) acetyl-L-carnitine in water, 1.0% (wt/vol) polyphenol in water; 0.2% (wt/wt) lipoic acid in AIN93M diet, or a combination of the above. Rats were acclimated for one week before experiments. Rats were fed for the above treatment for 7 weeks before tests. Control rats were fed with water and AIN93M diet only. For assaying DNA oxidation, rats from each treatment group (5 animals per group) was anesthetized with ether and perfused with paraformaldehyde. The brain was removed and postfixed for paraffin sections. Sections of hippocampus were incubated with anti-8-hydroxy-2′-deoxyguanosine/8-hydroxyguanosine and visualized by using standard immunocytochemical methods. Quantification of oxidation was done as described in Liu, J K, et al., (Proc. Natl. Acad. Sci. USA, 99:[…], 2002). Values are a mean of 5 animals. The standard deviation is about 15%.

Compound | mortality after one year of treatment [1] [%] | mastery of the water maze over no treatment (Fischer 344 male rats) | DNA oxidation level compared with rats having no treatment [2]
C[N+](C)(C)C[C@H](O)CC(=O)[O-] [L-carnitine] | 1.2 | – | –
C[N+](C)(C)CC(O)CC(=O)[O-] (centres unmarked) [carnitine] | – | approximately 80% | approximately 112%
O=C(O)CCCCC1CCSS1 (centres unmarked) [lipoic acid, 1,2-dithiolane-3-pentanoic acid] | – | ~79% | ~82%
